# Experimental data reported in patent US20250049736A1, “SULFONAMIDE DERIVATIVES AND THEIR USE AS SOLUBLE EPOXIDE HYDROLASE INHIBITORS” (THE UNITED STATES OF AMERICA, AS REPRESENTED BY THE …, priority 2021, published 2025).
# Tests used:
# human sEH = human sEH (Homo sapiens (Human), UniProt P34913); experiment: Fluorescence-based sEH inhibitor screening assay (PHOME substrate); type: biochemical; conditions: dose-dependent fluorescence assay
# Description: Fluorescence-based sEH inhibitor screening assay provided a convenient method for screening human epoxide hydrolase inhibitors. The assay utilized (3-phenyl-oxiranyl)-acetic acid cyano-(6-methoxy-naphthalen-2-yl)-methyl ester (PHOME) as substrate. […] The cyanohydrin quickly decomposed into cyanide ion and the highly fluorescent 6-methoxy-2-naphthaldehyde which was analyzed using an excitation wavelength of 330 nm and emission wavelength of 465 nm after a 30-minute reaction time in darkness.
# The background AF was subtracted from the 100% initial activity and inhibitor AFs.
# Plasma protein [1] = experiment: Plasma protein binding, human; type: in vitro ADME
# [2] = Metabolic stability, mouse; type: in vitro ADME
# Plasma protein [3] = experiment: Plasma protein binding, mouse; type: in vitro ADME
# [4] = Metabolic stability, human; type: in vitro ADME
# [5] = biological target: inducible nitric oxide synthase (iNOS) (Mus musculus (Mouse), UniProt P29477); experiment: iNOS inhibition primary assay; type: biochemical; conditions: 10 μM of each compound; mouse cell line
# Description: Biochemical assay results are presented as the percent inhibition of specific binding or activity. The concentration of each compound was 10 μM.
# [6] = Aqueous solubility @ pH 7.4; type: physicochemical
# Caco-2 = Caco-2 permeability; type: in vitro ADME
# Chain of human sEH (P34913 whole entry): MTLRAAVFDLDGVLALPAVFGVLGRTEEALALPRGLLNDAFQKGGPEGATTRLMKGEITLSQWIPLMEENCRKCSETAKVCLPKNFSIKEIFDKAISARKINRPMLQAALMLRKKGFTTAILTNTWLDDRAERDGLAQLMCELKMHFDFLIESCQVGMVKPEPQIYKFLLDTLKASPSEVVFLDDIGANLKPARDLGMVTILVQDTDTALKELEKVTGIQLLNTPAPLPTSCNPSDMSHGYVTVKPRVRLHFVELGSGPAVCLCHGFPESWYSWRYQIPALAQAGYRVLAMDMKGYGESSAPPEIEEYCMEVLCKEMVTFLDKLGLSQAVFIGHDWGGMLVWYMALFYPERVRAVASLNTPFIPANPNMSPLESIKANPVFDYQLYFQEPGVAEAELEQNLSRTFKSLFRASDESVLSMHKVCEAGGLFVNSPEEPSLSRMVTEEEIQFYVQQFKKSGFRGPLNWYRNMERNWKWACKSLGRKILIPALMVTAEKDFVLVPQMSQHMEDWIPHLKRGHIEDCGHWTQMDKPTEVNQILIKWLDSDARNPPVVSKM
structure (smiles),measurement,setting,value
CS/C(N)=N/C(=NS(=O)(=O)c1ccc(OC(F)(F)F)cc1)NC12CC3CC(CC(C3)C1)C2 [Compound 8i],IC50,human sEH,1.02 nM
O=C(NC12CC3CC(CC(C3)C1)C2)NS(=O)(=O)c1ccc2ccccc2c1 [Compound 5e],Plasma protein binding % of stability,Plasma protein [1],99%
same,IC50,human sEH,1.21 nM
same,Metabolic stability Half life,[2],2.2 min
same,Metabolic stability % remaining after 1 h,[2],0%
same,Plasma protein binding % of bound comp,Plasma protein [3],98%
same,Plasma protein binding % of stability,Plasma protein [3],88%
same,Metabolic stability Half life,[4],33.4 min
same,Metabolic stability % remaining after 1 h,[4],45%
C[Se]/C(N)=N/C(=NS(=O)(=O)c1ccc(OC(F)(F)F)cc1)NC12CC3CC(CC(C3)C1)C2 [Compound 9i],IC50,human sEH,3.84 nM
same,% iNOS inhibition,[5],87%
"C[Se]C(=N)NC(=NS(=O)(=O)c1ccc(C(F)(F)F)cc1)NC12CC3CC(CC(C3)C1)C2 [Compound 9j, methyl N—N′-((3s,5s,7s)-adamantan-1-yl)-N′-((4-(trifluoromethyl)phenyl)sulfonyl)carbamimidoyl)carbamimidoselenoate]",% iNOS inhibition,[5],90%
COc1ccc(S(=O)(=O)/N=C(\N=C(/N)[Se]C)NC23CC4CC(CC(C4)C2)C3)cc1 [Compound 9c],% iNOS inhibition,[5],94%
"CSC(=N)NC(=NS(=O)(=O)c1ccc(C(C)(C)C)cc1)NC12CC3CC(CC(C3)C1)C2 [Compound 8b, methyl N—N′-((3s,5s,7s)-adamantan-1-yl)-N′-((4-(tert-butyl)phenyl)sulfonyl)carbamimidoyl)carbamimidothioate]",% iNOS inhibition,[5],52%
"O=C(NC12CC3CC(CC(C3)C1)C2)NS(=O)(=O)c1ccccc1 [Compound 5d, N-(((3s,5s,7s)-adamantan-1-yl)carbamoyl)benzenesulfonamide]",IC50,human sEH,104 nM
"O=C(NC12CC3CC(CC(C3)C1)C2)NS(=O)(=O)c1ccc(OC(F)(F)F)cc1 [Compound 5i, N-(((3s,5s,7s)-adamantan-1-yl)carbamoyl)-4-(trifluoromethoxy)benzenesulfonamide]",Aqueous Solubility @ pH 7.4,[6],53 μg/mL
same,Plasma protein binding % of stability,Plasma protein [1],99%
same,IC50,human sEH,1.69 nM
same,Efflux ratio,Caco-2; Caco-2,0.8
same,Caco-2 permeability Aical to Basal (Papp),Caco-2; apical to basal,14.9 cm/sec (10^−6)
same,Caco-2 permeability Basal to Apical (Papp),Caco-2; basal to apical,12.6 cm/sec (10^−6)
same,Metabolic stability Half life,[2],4.9 min
same,Metabolic stability % remaining after 1 h,[2],0%
same,Plasma protein binding % of bound comp,Plasma protein [3],98%
same,Metabolic stability Half life,[4],106.3 min
same,Metabolic stability % remaining after 1 h,[4],80%
NN/C(=N/S(=O)(=O)c1ccc(OC(F)(F)F)cc1)NC12CC3CC(CC(C3)C1)C2 [Compound 13i],IC50,human sEH,154 nM
C/C(N)=N\C(=N\S(=O)(=O)c1ccc(OC(F)(F)F)cc1)NC12CC3CC(CC(C3)C1)C2 [Compound 7i],IC50,human sEH,9.89 nM
"O=S(=O)(NC(=S)NC12CC3CC(CC(C3)C1)C2)c1ccccc1 [Compound 11c, N-(((3s,5s,7s)-adamantan-1-yl)carbamothioyl)benzenesulfonamide]",IC50,human sEH,131 nM
"C[Se]C(=N)NC(=NS(=O)(=O)c1ccc(C#N)cc1)NC12CC3CC(CC(C3)C1)C2 [Compound 9h, methyl N—N′-((3s,5s,7s)-adamantan-1-yl)-N′-((4-cyanophenyl)-sulfonyl)carbamimidoyl)carbamimidoselenoate]",% iNOS inhibition,[5],93%
"C[Se]C(=N)NC(=NS(=O)(=O)c1ccc(C(C)(C)C)cc1)NC12CC3CC(CC(C3)C1)C2 [Compound 9b, methyl N—N′-((3s,5s,7s)-adamantan-1-yl)-N′-((4-(tert-butyl)phenyl)sulfonyl)carbamimidoyl)carbamimidoselenoate]",% iNOS inhibition,[5],95%
"O=S(=O)(NC(=S)NC12CC3CC(CC(C3)C1)C2)c1ccc(OC(F)(F)F)cc1 [Compound 11d, N-(((3s,5s,7s)-adamantan-1-yl)carbamothioyl)-4-(trifluoromethoxy)benzenesulfonamide]",IC50,human sEH,4.66 nM
